For seven compounds, IC50 results are on record in patent publication US8846704B2, “Thiopyrimidine-based compounds and uses thereof” (YM Biosciences Austraila Pty Ltd, priority 2007, dated 2014).

Experiment [1] addresses T1, human JAK3 (Homo sapiens, UniProt P52333).
T1 construct: The kinase domain of human JAK3 was amplified; GST (N); made in house; host or cells: Sf9 insect cells (baculovirus)
Put plainly: Alphascreen tyrosine kinase enzyme assay, JAK3 kinase domain. It counts as biochemical. Particulars: read-out: JAK3 IC50_nM. In a few lines:
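GST-affinity-purified human JAK3 kinase domain (baculovirus/Sf9) was pre-incubated 20 min with compound ([…]) in HEPES pH 7.5 buffer with MgCl2, vanadate and Tween 20. Biotinylated peptide substrate ([…]) and ATP were then added; phosphotyrosine was detected by AlphaScreen PY100 acceptor and streptavidin donor beads after 2–3 h.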
In general terms: Bead proximity is the source of the signal in Alpha formats.

Experiment [2] relates to BaF3 wild-type cells. As to the kind of experiment: Cellular screening, BaF3 wild-type cells, Alamar Blue. It counts as cell-based. The following applies: Mus musculus, 40 hr, read-out: BAF3wt IC50_nM. Put shortly:
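Compounds, screened from dilution plates at 20 μM, were added as 10× final stocks to cells grown in DMEM/10% FCS/10% WEHI 3B conditioned medium. Cells were seeded at 1.1× final (50,000–200,000 cells/mL) and incubated 40 hr at 37° C, 5% CO2. Viability was read at 544 nm after a further 4–6 hours with Alamar Blue.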

T1 sequence (P52333 822-1111 limits assumed): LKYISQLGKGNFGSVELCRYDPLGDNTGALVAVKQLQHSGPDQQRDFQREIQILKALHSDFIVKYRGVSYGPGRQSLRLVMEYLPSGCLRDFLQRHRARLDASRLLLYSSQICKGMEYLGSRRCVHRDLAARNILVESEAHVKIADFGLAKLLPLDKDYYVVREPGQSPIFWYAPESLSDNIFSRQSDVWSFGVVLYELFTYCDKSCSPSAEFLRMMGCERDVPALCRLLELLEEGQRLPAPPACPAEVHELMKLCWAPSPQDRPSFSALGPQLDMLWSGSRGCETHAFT

Regarding `Cc1cnc(Nc2ccc(N3CCOCC3)cc2)nc1Sc1ccc(NC(=O)CCC(=O)O)cc1` [Compound 383, 4-(4-(5-methyl-2-(4-morpholinophenylao)pyrimidin-4-ylthio)phenylao)-4-oxobutanoic acid], the IC50 in experiment [1] was under 100 nM; in experiment [2], under 20000 nM.

As to `Cc1cnc(Nc2ccc(N3CCOCC3)cc2)nc1Sc1ccc(N2C(=O)CCC2=O)cc1` [Compound 384, 1-(4-(5-methyl-2-(4-morpholinophenylao)pyrimidin-4-ylthio)phenyl)pyrrolidine-2,5-dione], the IC50 was under 100 nM in experiment [1] and over 20000 nM in experiment [2].

Regarding `CNC(=O)CCC(=O)Nc1ccc(Sc2nc(Nc3ccc(N4CCOCC4)cc3)ncc2C)cc1` [Compound 386, N1-methyl-N4-(4-(5-methyl-2-(4-morpholinophenylao)pyrimidin-4-ylthio)phenyl)succinamide], the IC50 is under 500 nM in experiment [1] and over 20000 nM in experiment [2].

For `Cc1cnc(Nc2ccc(N3CCOCC3)cc2)nc1Sc1ccc(NC(=O)/C=C/C(=O)O)cc1` [Compound 387, (E)-4-(4-(5-methyl-2-(4-morpholinophenylao)pyrimidin-4-ylthio)phenylao)-4-oxobut-2-enoic acid], the IC50 in experiment [1] was under 100 nM; in experiment [2], over 20000 nM.

As for `CCOC(=O)/C=C\C(=O)Nc1ccc(Sc2nc(Nc3ccc(N4CCOCC4)cc3)ncc2C)cc1` [Compound 388, (Z)-ethyl 4-(4-(5-methyl-2-(4-morpholinophenylao)pyrimidin-4-ylthio)phenylao)-4-oxobut-2-enoate], the IC50 in experiment [1] was under 100 nM; in experiment [2] it was under 5000 nM.

For `Cc1cnc(Nc2ccc(N3CCOCC3)cc2)nc1Sc1ccc(N2C(=O)C=CC2=O)cc1` [Compound 390, 1-(4-(5-methyl-2-(4-morpholinophenylao)pyrimidin-4-ylthio)phenyl)-1H-pyrrole-2,5-dione], the IC50 in experiment [1] is under 100 nM; in experiment [2], under 5000 nM.

Regarding `C=CC(=O)Nc1ccc(Sc2ccnc(Nc3ccc4c(c3)OCO4)n2)cc1` [Compound 393, N-(4-(2-(benzo[d][1,3]dioxol-5-ylao)pyrimidin-4-ylthio)phenyl)acrylamide], the IC50 in experiment [1] is under 100 nM; in experiment [2], over 20000 nM.
